# Patent US10716768B2, “Method for treating abnormal B-amyloid aggregation mediated diseases” (NATIONAL TAIWAN NORMAL UNIVERSITY, priority 2016, dated 2020)
# pIC50: −log10 of the molar value.
# Key:
# [1] = Cytotoxicity of induced cells, propidium iodide staining and flow cytometer; assay type: cell-based, human; settings: human
# [2] = MTT cytotoxicity test, un-induced cells; assay type: cell-based, human; settings: human
# Protocol: (§1) This experiment was to test the toxicity of compounds (I-1), (I-2), (I-3), (I-4), and (I-5) to un-induced Tet-On Aβ-GFP Ftp-In 293 and SH-SY5Y cells. Un-induced Tet-On Aβ-GFP Flp-In 293 and SH-SY5Y cells were treated with compounds (I-1), (I-2), (I-3), (I-4), and (I-5) in different concentrations from 0.1 to 100 μM for 24 hours, followed by conducting MTT assay to test the cytotoxicity of the compounds. The experiment also tested the cytotoxicity of licochalcone A (0.1-100 μM) and curcumin (1-10 μM) to the un-induced Tet-On Aβ-GFP Flp-In 293 and SH-SY5Y cells. In the experiment, the relative cellular survival rate of untreated cells was 100%, the half maximal inhibitory concentration (IC50) of each compound was calculated by using interpolation, and the sample number of each group was n=3.
# [3] = Solubility test in cell culture medium; assay type: physicochemical; settings: plasma or biological fluid, vortex mixing, centrifugation five minutes at 13,000 g, read-out: solubility in cell culture medium (completely soluble up to)
# Protocol: This experiment was to test the solubility of compound (I-1), compound (I-2), compound (I-3), compound (I-4), and compound (I-5) in cell culture medium. After vortex mixing and centrifugation for five minutes at 13,000 g, the compounds were completely soluble in the cell culture medium up to 100 μM.
# [4] = tested on: Aβ aggregation in Tet-On Aβ-GFP Flp-In 293 cells; assay: Inhibition of abnormal β-amyloid aggregation test (GFP fluorescence, high-content analysis); assay type: cell-based, human; settings: for GFP fluorescence: untreated 100%
# Protocol: GFP fluorescence was used to reflect Aβ aggregation status as Aβ aggregated to cause the fused GFP misfolded, and thus cause the reduction of fluorescence on Aβ-GFP expressing cells. Inhibition of Aβ aggregation may improve GFP misfolding and lead to increased fluorescence on Aβ-GFP expressing cells. […] Then doxycycline (Dox) (2 μg/mL) was added to the cells for 64 hours to induce the Aβ-GFP expression, and GFP fluorescence was assessed by a high-content analysis (HCA) system (ImageXpressMICRO, available from Molecular Devices). The experiment also tested the inhibition effect of Aβ aggregation by curcumin (1-10 μM) and licochalcone A (0.001-100 μM). In the experiment, the amount of fluorescence measured in the untreated group (untreated with compounds) was 100%, and the sample number of each group was n=3.
# [5] = tested on: Tet-On Aβ-GFP Flp-In 293 cells; assay: Cytotoxicity of induced cells, propidium iodide staining and flow cytometer; assay type: cell-based, human; settings: induced cells, PI staining, flow cytometer (FIG. 3C)
# [6] = tested on: un-induced Tet-On Aβ-GFP Flp-In 293 and SH-SY5Y cells; assay: MTT cytotoxicity test, un-induced cells; assay type: cell-based, human; settings: MTT, 24 hours; range over un-induced Flp-In 293 (FIG. 1A) and SH-SY5Y (FIG. 1B) cells
# Protocol: as §1
# [7] = 0.001-1 μM, cell survival rate more than 80%
# [8] = 0.001-10 μM, cell survival rate more than 80%
solubility [3],SMILES,pIC50 [1],IC50 at 24 h [2],further results
≥ 100 µM,COc1cccc(/C=C/C(=O)c2ccc(O)cc2)c1O [Compound (I-4)],4.22,45 to 71 µM,"GFP fluorescence ([4]; 0.01-1 μM, cell survival rate more than 80%): 102-105%"
≥ 100 µM,COc1ccc(O)c(/C=C/C(=O)c2ccccc2)c1 [Compound (I-2)],4.24,10 to 51 µM,"GFP fluorescence [4, 7]: 105-112%"
–,"C=CC(C)(C)c1cc(/C=C/C(=O)c2ccc(O)cc2)c(OC)cc1O [licochalcone A, reference compound]",–,–,"pIC50 [5]: 4.21; pIC50 [6]: 4.29 to 4.33; GFP fluorescence [4, 7]: 105-115%"
≥ 100 µM,COc1ccc(C(=O)/C=C/c2cc(Br)ccc2O)cc1 [Compound (I-1)],4.32,8 to 51 µM,"GFP fluorescence ([4]; 0.001-0.1 μM, cell survival rate more than 80%): 103-111%"
≥ 100 µM,O=C(c1ccccc1)c1cc2c(O)cccc2oc1=O [Compound (I-5)],4.02,> 100 µM,"GFP fluorescence [4, 8]: 107-125%"
≥ 100 µM,Cc1ccc(/C=C/C(=O)c2c(O)c3ccccc3oc2=O)cc1 [Compound (I-3)],4.09,≥ 55 µM,"GFP fluorescence [4, 8]: 103-117%"
–,"COc1cc(/C=C/C(=O)CC(=O)/C=C/c2ccc(O)c(OC)c2)ccc1O [curcumin, reference compound]",–,> 10 µM,cell number ([4]; curcumin 2.5 μM and 5 μM): more than 80 % of untreated cells; GFP fluorescence ([4]; curcumin 2.5 μM and 5 μM): 107-120%
